Measurements taken from patent publication US20150150892A1, “METHODS AND PRODUCTS RELATED TO LUNG CANCER” (Massachusetts Institute of Technology, priority 2012, published 2015).

Columns and labels:
[1] = system: KrasLSL-G12D/wt;p53flox/flox (KP) lung tumors; assay: MicroCT lung tumor volume in KP mice; format: in vivo, mouse
From the text: FIG. 3: Bortezomib induces acute lung tumor regression in KrasLSL-G12D/wt;p53flox/flox (KP) mice, but not in KrasLSL-G12D/wt (K) mice. (3A and 3C) representative microCT images (n=6) of KP (3A) and K (3C) lung tumors prior to pre-treatment (D0) and 4 days (D4) after a single dose of vehicle control or bortezomib. (3 B and 3D) Quantification of tumor volume change (D4 compared with D0) in control- and bortezomib-treated mice. Each bar represents an individual tumor. P<10^−6 in KP mice (3B); P>0.05 in K mice (3D).
FIG. 5: Bortezomib increases survival in KP mice. (5A and 5B) Kaplan-Meier survival curve of vehicle control and bortezomib-treated KP (5A) and K (5B) mice. Arrows indicate weekly 1 mg/kg bortezomib regimen. (5C) quantification of lung tumor volume of control- and bortezomib-treated KP mice. From 10 weeks after Adeno-Cre infection, lungs were imaged by microCT to measure individual tumor volumes (n=4). Data points represent means of fold change and SD relative to 10 weeks (set to 1). Arrows indicate bortezomib injection. D, CC3 staining (×200) in lung tumors receiving 3 doses of control (“C”) and 1 final dose of bortezomib (“B,” left) or 4 doses of bortezomib (right). Tumors were harvested 48 hours after the last treatment (n=4).
The Massachusetts Institute of Technology (Cambridge, Mass.) Institutional Animal Care and Use Committee approved all animal studies and procedures. […]
At indicated time points, mice were scanned for 15 min under isoflurane anesthesia, using a small animal eXplore Locus microCT (GE Healthcare) at 45-μm resolution, 80 kV, with 450-mA current (47). […] Mice were imaged for 60 seconds, and signals in the lung were quantified using Xenogen software.
To understand the relevance of these findings in vivo, we examined bortezomib-mediated NF-κB inhibition in both KP and K models of lung cancer. […] Individual lung tumors were monitored using micro-computed tomography (microCT) imaging prior to treatment (D0) and 4 days post treatment (D4). […]

[2] = system: luciferase-tagged KP cells transplanted into immunocompetent recipient mice; assay: Orthotopic lung tumor model, survival and bioluminescence imaging; format: in vivo, mouse
From the text: FIG. 6: Imaging bortezomib response and resistance in an orthotopic lung tumor model. (6A) experimental design. Lung cancer cells derived from KP tumors were infected with a retrovirus expressing luciferase and transplanted into immunocompetent recipient mice by tail vein injection. (6B) Kaplan-Meier survival curve of control and bortezomib-treated recipient mice (n=6; P=1.4×10−5). A total of 10,000 cells were transplanted, and treatment started after 35 days. (6C) representative bioluminescence imaging of recipient mice (n=6) treated with vehicle control or bortezomib, as in 6B. D0 refers to the first treatment. Arrows indicate weekly bortezomib regimen.
FIG. 7: The NF-κB inhibitor Bay-117082 leads to lung tumor regression in vivo. (7A) quantitative PCR analysis of NF-κB target gene expression in KP cells treated with 10 μM Bay-117082 for indicated hours. Error bars are SD (n=3). (7B) Bay-117082 treatment leads to lung tumor regression and delays tumor progression in the orthotopic lung tumor model. A total of 50,000 luciferase-tagged KP cells were transplanted into recipient mice (n=6), and treatment was started at 19 days after transplantation (set at D0). Mice were treated with vehicle control or 10 mg/kg Bay-117082 by i.p. injection, and imaged at the indicated time points. Arrows indicate Bay-117082 injections. (7C) Bay-117082 prolongs survival in the KP model (n=6; P=0.008). “i.p. dosing” indicates treatment with 3 doses per week.
At indicated time points, mice were scanned for 15 min under isoflurane anesthesia, using a small animal eXplore Locus microCT (GE Healthcare) at 45-μm resolution, 80 kV, with 450-mA current (47). Images were acquired and processed using GE eXplore software. Bioluminescence imaging was performed as previously described (48). Mice were imaged for 60 seconds, and signals in the lung were quantified using Xenogen software.
To facilitate imaging of the bortezomib treatment response, we adapted a transplantation-based orthotopic lung cancer mouse model (37). As outlined in FIG. 6A, we infected KP cell lines with a retrovirus expressing firefly luciferase. The cells were transplanted into immunocompetent recipient mice by i.v. injection, resulting in the development of in situ lung tumors that could be imaged and quantified by bioluminescence imaging.
To determine whether bortezomib therapy was effective in the orthotopic model, we transplanted 10,000 KP cells into host mice and treated the mice 5 weeks later, either with control or with a weekly 4-dose regimen of bortezomib (37).

[3] = system: Kras^G120;p53^fl/fl (high NF-κB) mice; assay: FIG. 19 study, mice with high NF-κB; format: in vivo, mouse; conditions: 1 kg/mg IV bortezomib
Procedure: FIG. 19 is a schetaic diagram showing the experimental conditions and a set of graphs showing the results. Two sets of mice were treated with […] IV bortezomib, Kras^G120;p53^fl/fl (high NF-κB, top panel) or KrasL^St-G12Dwt (low NF-κB, bottom panel). […] The relapsed tumors have high Hmcgs2.
Mice having either high or low levels of NF-κB were treated with […] IV bortezomib and examined for tumor progression, apoptosis and survival. The mice are Kras^G120;p53^fl/fl (high NF-κB) or KrasL^St-G12Dwt (low NF-κB). […] The relapsed tumors have high Hmcgs2.

[4] = cited from earlier work
[5] = system: KP lung cancer cells in NCR nu/nu mice; assay: Subcutaneous tumor model, caliper tumor volume; conditions: KP cells s.c. in immunocompromised mice
Procedure: 1×10^6 KP lung cancer cells were injected subcutaneously into NCR nu/nu mice. Tumor volume was quantified by caliper measurements. Treatments started when tumors reached −100 mm^3 (set to 1 in tumor volume axis and 0 days in time axis). Arrows indicate Bortezomib (1 mg/kg) or Cisplatin (7 mg/kg) injections. Error bars are s.d (n=4).
To compare the efficacy of bortezomib to that of other lung cancer therapies, we injected KP lung tumor cells s.c. into immunocompromised mice, allowed tumors to form, and then treated the mice with bortezomib.

[6] = orthotopic model, weekly bortezomib

CC(C)C[C@H](NC(=O)[C@H](Cc1ccccc1)NC(=O)c1cnccn1)B(O)O [bortezomib, N-(2-pyrazine) carbonyl-L-phenylalanine-L-leucine boronic acid]
tumor response by the 4th dose ([1]; once a week for 4 weeks, 13 weeks): insensitive to treatment
tumor response after the first dose ([1]; once a week for 4 weeks, twice-weekly microCT, 10.5 weeks): rapid KP tumor regression
average decrease in tumor volume at D4 compared with D0 ([1]; single dose 1 mg/kg i.v., 10 weeks after Adeno-Cre infection, microCT): 55.4%
average survival ([2]; 10,000 KP cells transplanted, weekly 4-dose bortezomib from 5 weeks, control 47.0±2.0 days, P=1.4×10^−5): 64.0 ± 5.4 days
bioluminescence tumor signal at day 2 and day 4 ([2]; orthotopic model, after first bortezomib treatment): marked tumor regression
effect of a 4th dose [2, 6]: ineffective
lung tumor signal after the 2nd and 3rd treatments [2, 6]: still decreased or stabilized
tumor response, apoptosis and survival (FIG. 19) [3]: rapid tumor progression, apoptosis, and increased survival
half-life in vivo [4]: short half-life
tumor volume, short term ([5]; Bortezomib 1 mg/kg): markedly reduced tumor volumes
tumor progression ([5]; Bortezomib 1 mg/kg or Cisplatin 7 mg/kg): diminished tumor progression to a similar extent as cisplatin
